Patent US10239887B2, “Positive allosteric modulators of the muscarinic acetylcholine receptor M4” (Vanderbilt University, priority 2016, dated 2019)

What was measured:
rat mAChR M4 = molecular target: T1, rat mAChR M4 (Rattus norvegicus, UniProt P08485); assay: mAChR M4 cell-based functional assay (calcium flux), rat M4; design: Emax: dose or concentration left out as unconfirmed; conditions: for EC50: read-out: Rat M4 EC50, CHO-K1 rM4-Gqi5 cells, calcium flux, increase in EC20 acetylcholine response
T1 sequence (P08485 1-478): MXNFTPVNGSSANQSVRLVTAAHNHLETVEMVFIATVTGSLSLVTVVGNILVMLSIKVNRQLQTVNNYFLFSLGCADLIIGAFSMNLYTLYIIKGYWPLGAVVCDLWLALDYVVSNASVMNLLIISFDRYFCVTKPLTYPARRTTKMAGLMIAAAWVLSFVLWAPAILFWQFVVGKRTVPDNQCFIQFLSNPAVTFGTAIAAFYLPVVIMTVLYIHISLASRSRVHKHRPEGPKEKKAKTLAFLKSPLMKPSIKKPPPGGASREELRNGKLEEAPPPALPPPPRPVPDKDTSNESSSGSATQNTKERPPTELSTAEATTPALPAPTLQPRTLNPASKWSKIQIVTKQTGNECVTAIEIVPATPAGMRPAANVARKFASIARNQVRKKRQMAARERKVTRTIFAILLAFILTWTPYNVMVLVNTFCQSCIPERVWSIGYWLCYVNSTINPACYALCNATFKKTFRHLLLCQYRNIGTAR

human mAChR M4 = molecular target: T2, human mAChR M4 (Homo sapiens, UniProt P08173); assay: mAChR M4 cell-based functional assay (calcium flux), human M4; conditions: for Emax: % ACh maximum at 30 μM; for EC50: calcium flux
T2 sequence (P08173 1-479): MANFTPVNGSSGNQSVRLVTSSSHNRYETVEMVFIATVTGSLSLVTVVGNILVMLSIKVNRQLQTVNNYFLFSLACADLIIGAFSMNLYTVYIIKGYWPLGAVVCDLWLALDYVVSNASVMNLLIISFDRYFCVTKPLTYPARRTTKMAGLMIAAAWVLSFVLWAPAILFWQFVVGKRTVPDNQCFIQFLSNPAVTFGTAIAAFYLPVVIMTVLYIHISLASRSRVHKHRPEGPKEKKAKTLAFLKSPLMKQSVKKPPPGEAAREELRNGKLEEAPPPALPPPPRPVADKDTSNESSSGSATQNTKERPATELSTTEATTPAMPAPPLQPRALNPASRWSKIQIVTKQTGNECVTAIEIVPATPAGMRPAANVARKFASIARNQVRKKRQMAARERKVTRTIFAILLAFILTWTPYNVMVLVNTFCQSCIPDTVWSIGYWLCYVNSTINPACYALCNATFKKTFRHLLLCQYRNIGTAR

[1] = Human M4 EC50, CHO-K1 hM4-Gqi5 cells, increase in EC20 acetylcholine response
[2] = Human M4 EC50 (nM), Table 10, PAM activity with EC20 acetylcholine

Row | SMILES | Emax (rat mAChR M4) [%] | EC50 (rat mAChR M4) [nM] | Emax (human mAChR M4; Human M4) [%] | EC50 (human mAChR M4; [1]) [nM] | EC50 (human mAChR M4; [2]) [nM] | Emax (human mAChR M4; Table 10) [%] | EC50 (human mAChR M4; Human M4 EC50 (nM), Table 11, PAM activity with EC20 acetylcholine) [nM] | Emax (human mAChR M4; Table 11) [%]
1 | Cc1nnc2sc3c(N(C)C)ncnc3c2c1C [Compound 1, N,N,3,4-tetramethylpyrimido[4′,5′:4,5]thieno[2,3-c]pyridazin-8-amine] | 79 | 724 | 62 | 638 |  |  |  | 
2 | Cc1nnc2sc3c(NC4CCCCC4)ncnc3c2c1C [Compound 2, N-cyclohexyl-3,4-dimethylpyrimido[4′,5′:4,5] thieno[2,3-c] pyridazin-8-amine] | 62 | 836 | 52 | 724 |  |  |  | 
3 | Cc1nnc2sc3c(N4CCCC4)ncnc3c2c1C [Compound 6, 3,4-dimethyl-8-(pyrrolidin-1-yl)pyrimido[4′,5′:4,5]thieno [2,3-c]pyridazine] | 82 |  | 68 |  |  |  |  | 
4 | Cc1nnc2sc3c(NC4CCC4)ncnc3c2c1C [Compound 5, N-cyclobutyl-3,4-dimethylpyrimido[4′,5′:4,5] thieno[2,3-c]pyridazin-8-amine] | 80 | 112 | 73 |  |  |  |  | 
5 | Cc1nnc2sc3c(NC4CCOCC4)ncnc3c2c1C [Compound 3, 3,4-dimethyl-N-(tetrahydro-2H-pyran-4-yl) pyrimido[4′,5′:4,5] thieno[2,3-c]pyridazin-8-amine] | 60 | 521 | 45 | 446 |  |  |  | 
6 | COCC1CN(c2ncnc3c2sc2nnc(C)c(C)c23)C1 [Compound 14, 8-(3-(methoxymethyl)azetidin-1-yl)-3,4-dimethylpyrimido [4′,5′:4,5]thieno[2,3-c] pyridazine] | 75 |  | 62 |  |  |  |  | 
7 | Cc1nnc2sc3c(N4CC5CC5C4)ncnc3c2c1C (stereo not drawn) [Compound 10, 8-(3-azabicyclo[3.1.0]hexan-3-yl)-3,4-dimethylpyrimido [4′,5′:4,5]thieno[2,3-c] pyridazine] | 86 | 36 | 81 | 21 |  |  |  | 
8 | FC(F)(F)c1cnc(N2CC(Nc3ncnc4c3sc3nccnc34)C2)nc1 [Compound 20, N-(1-(5-(trifluoromethyl)pyrimidin-2-yl)azetidin-3-yl)pyrazino[2′,3′:4,5] thieno[3,2-d]pyrimidin-4-amine] | 46 | 2800 |  | > 10000 |  |  |  | 
9 | Cc1cnc2sc3c(N4CCC4)ncnc3c2c1 [Compound 18, 4-(azetidin-1-yl)-8-methylpyrido[3′,2′:4,5] thieno[3,2-d]pyrimidine] | 51 | 2500 | 58 |  |  |  |  | 
10 | Cc1nnc2sc3c(N4CCN(C5CC5)CC4)ncnc3c2c1C [Compound 8, 8-(4-cyclopropylpiperazin-1-yl)-3,4-dimethylpyrimido [4′,5′:4,5]thieno[2,3-c] pyridazine] | 42 | 700 | 30 | 616 |  |  |  | 
11 | Cc1nnc2sc3c(N4CCC4)ncnc3c2c1C [Compound 9, 8-(azetidin-1-yl)-3,4-dimethylpyrimido [4′,5′:4,5]thieno[2,3-c] pyridazine] | 75 |  | 68 | 351 |  |  |  | 
12 | Cc1nnc2sc3c(N4CC(c5ccncc5)C4)ncnc3c2c1C [Compound 24, 3,4-dimethyl-8-(3-(pyridin-4-yl)azetidin-1-yl)pyrimido[4′,5′:4,5] thieno[2,3-c]pyridazine] | 40 | 185 | 62 |  |  |  |  | 
13 | Cc1nnc2sc3c(NCc4ccc(C(=O)NC5CCC(C)(C)CC5)cc4)ncnc3c2c1C [Compound 160, N-(4,4-dimethylcyclohexyl)-4-[[(3,4-dimethylpyrimido [4′,5′:4,5]thieno[2,3-c]pyridazin-8-yl)amino]methyl]benzamide] |  |  |  |  | 980 | 86 |  | 
14 | Cc1nnc2sc3c(NCc4ccc(C(=O)N5CCC(F)(F)CC5)cc4)ncnc3c2c1C [Compound 130, (4,4-difluoro-1-piperidyl)-[4-[[(3,4-dimethylpyrimido [4′,5′:4,5]thieno[2,3-c]pyridazin-8-yl)amino]methyl]phenyl]methanone] |  |  |  |  | 724 | 93.2 |  | 
15 | COc1nnc2sc3c(NCc4ccc(C(C)(C)O)cc4)ncnc3c2c1C [Compound 280, 2-[4-[[(3-methoxy-4-methyl-pyrimido [4′,5′:4,5]thieno[2,3-c]pyridazin-8-yl)amino]methyl]phenyl]propan-2-ol] |  |  |  |  |  | 86.7 |  | 
16 | Cc1nnc2sc3c(NCc4ccc(C(=O)NC5CCCC5)c(Cl)c4)ncnc3c2c1C [Compound 317, 2-chloro-N-cyclopentyl-4-[[(3,4-dimethylpyrimido [4′,5′:4,5]thieno[2,3-c]pyridazin-8-yl)amino]methyl]benzamide] |  |  |  |  |  |  | 323 | 75.1

The next lines start with the values.

Row | Emax (rat mAChR M4) [%] | EC50 (rat mAChR M4) [nM] | Emax (human mAChR M4; Human M4) [%] | EC50 (human mAChR M4; [1]) [nM] | EC50 (human mAChR M4; [2]) [nM] | Emax (human mAChR M4; Table 10) [%] | EC50 (human mAChR M4; Human M4 EC50 (nM), Table 11, PAM activity with EC20 acetylcholine) [nM] | Emax (human mAChR M4; Table 11) [%] | SMILES
17 | 76 | 424 | 32 |  |  |  |  |  | Cc1cnc2sc3c(NC4CN(c5ncc(C(F)(F)F)cn5)C4)ncnc3c2c1 [Compound 17, 8-methyl-N-(1-(5-(trifluoromethyl)pyrimidin-2-yl)azetidin-3-yl)pyrido[3′,2′:4,5] thieno[3,2-d]pyrimidin-4-amine]
18 | 55 | 326 | 40 | 257 |  |  |  |  | Cc1nnc2sc3c(N4CCC(N(C)C)C4)ncnc3c2c1C (stereo not drawn) [Compound 11, 1-(3,4-dimethylpyrimido [4′,5′:4,5]thieno[2,3-c]pyridazin-8-yl)-N,N-dimethylpyrrolidin-3-amine]
19 | 86 | 30 | 74 | 251 |  |  |  |  | Cc1nnc2sc3c(NC4CN(c5ncc(C(F)(F)F)cn5)C4)ncnc3c2c1C [Compound 7, 3,4-dimethyl-N-(1-(5-(trifluoromethyl)pyrimidin-2-yl)azetidin-3-yl)pyrimido[4′,5′:4,5] thieno[2,3-c]pyridazin-8-amine]
20 | 86 | 231 | 73 | 123 |  |  |  |  | Cc1nnc2sc3c(N4CC5(COC5)C4)ncnc3c2c1C [Compound 13, 6-(3,4-dimethylpyrimido [4′,5′:4,5]thieno[2,3-c]pyridazin-8-yl)-2-oxa-6-azaspiro[3.3]heptane]
21 | 54 | 1150 | 36 | 456 |  |  |  |  | Cc1cnc2sc3c(N4CC5(COC5)C4)ncnc3c2c1 [Compound 19, 6-(8-methylpyrido [3′,2′:4,5]thieno[3,2-d]pyrimidin-4-yl)-2-oxa-6-azaspiro[3.3]heptane]
22 | 58 | 215 | 44 | 120 |  |  |  |  | Cc1nnc2sc3c(N4CCCCC4)ncnc3c2c1C [Compound 4, 3,4-dimethyl-8-(piperidin-1-yl)pyrimido[4′,5′:4,5]thieno [2,3-c]pyridazine]
23 | 57 | 927 | 40 | 846 |  |  |  |  | COCCN(C)c1ncnc2c1sc1nnc(C)c(C)c12 [Compound 12, N-(2-methoxyethyl)-N,3,4-trimethylpyrimido [4′,5′:4,5]thieno[2,3-c] pyridazin-8-amine]
24 |  |  |  |  | 885 | 63.8 |  |  | Cc1c(Cl)cnc2sc3c(N4CCC(F)C4)ncnc3c12 (stereo not drawn) [Compound 220, 8-chloro-4-(3-fluoropyrrolidin-1-yl)-9-methyl-pyrido [3′,2′:4,5]thieno[3,2-d] pyrimidine]
